Consider 72 molecules from PubChem BioAssay AID179 (DTP/NCI, 2004).

The experiment deals with CEM cells HIV-1 protection, formazan growth assay. As to the kind of experiment: NCI AIDS Antiviral Assay. The settings on record: for IC50: measured here: growth of uninfected CEM cells. A digest of the protocol: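 Category rules: moderately active means at least 50% protection on retest, and confirmed active means 100% protection reproducibly. The underlying data came from a formazan growth assay in HIV-1-infected CEM cells.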

The structures appear in SMILES notation. Activity calls are given as the source filed them.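 How the source made its calls: active means compounds giving half or more protection of infected cells from virus-caused growth loss, again on retest; inactive means the rest.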

In general, EC50 refers to the concentration at which the effect is half-maximal. The term IC50 denotes the concentration that inhibits the measured activity by half. A lower IC50 goes with greater potency. For the molecule `C[C@H]1[C@H](C)CC[C@]2(C(=O)O)CCC3(COC(=O)/C=C/c4ccc(O)cc4)C(=CCC4[C@@]5(C)CC[C@H](O)C(C)(C)C5CC[C@]43C)[C@H]12` (stereo partly drawn), the EC50 is over 11.5 µM and the IC50 came out at 5.37 µM.
On the same counts, the results for `COc1ccc(-c2cc(-c3ccco3)c(C#N)c(=O)[nH]2)cc1` are over 24.5 µM and over 24.5 µM.
Turning to `COc1ccc2c3c([nH]c(=O)c2c1C(=O)O)-c1ccccc1CC3`, the EC50 is over 16.2 µM and the 50% inhibitory concentration (IC50) was over 16.2 µM.
As for `COc1nc2c(nc(N)n2C2OCC(O)C(O)C2O)c(=O)n1C` (stereo not drawn), the result was inactive.
Consider `O=C1c2c(O)cccc2C(C(=O)CCCCCC(=O)C2c3cccc(O)c3C(=O)c3c(O)cccc32)c2cccc(O)c21`, for which the EC50 is over 6.61 µM and the IC50 is 6.17 µM.
As to `CCCCNC(=O)OCC(COc1ccccc1OC)OC(=O)NCCCC` (stereo not drawn), the EC50 was over 66.1 µM and the IC50 is over 66.1 µM.
In the case of `Nc1c(Cl)cc(/C=C2\C=Cc3ccccc32)cc1Cl`, the EC50 is over 18.2 µM and the IC50 was over 18.2 µM.
For `COC(O)C(=O)c1c2c(cc3c1CCC3)CCC2` (stereo not drawn), the EC50 was over 200 µM and the half-inhibitory concentration (IC50) amounted to 174 µM.
As to `COc1cc(C=C2C(=O)OC(C)(C)OC2=O)cc(OC)c1OC`, the EC50 is over 776 µM and the half-inhibitory concentration (IC50) amounted to 83.2 µM.
On the same counts, the results for `COC(O)C12OC3CO[Si](C(C)C)(C(C)C)O[Si](C(C)C)(C(C)C)OC3C1Oc1nc(=O)ccn12` (stereo not drawn) are over 200 µM and 30.2 µM.
On to `Cc1nc(N)nc(N)c1CCCCc1ccc(N)cc1`, for which the outcome was inactive.
Turning to `O=C1c2ccccc2C(=O)c2sc(Nc3ccc(Cl)c(Cl)c3)nc21`, the EC50 was over 19.1 µM and the IC50 is 15.8 µM.
Consider `Cn1c(=O)c2c3ccccc3c(C(=O)c3ccccc3)n2c2ccccc21`, for which the EC50 was over 51.3 µM and the half-inhibitory concentration (IC50) was determined as 3.09 µM.
On the same counts, the results for `S=C(N/N=C(/c1ccccc1)c1ccccn1)Nc1ccccc1Cl` are over 0.2 µM and 0.0871 µM.
On the same counts, the results for `NC(C(F)(F)F)(C(F)(F)F)P(=O)(Cc1ccccc1)Cc1ccccc1` are over 200 µM and 145 µM.
On to `O=C1CC2C=CC1C2CO` (stereo not drawn), for which the outcome was inactive.
The same measure, in the same setting: in the case of `Cl/C(N=Nc1ccccc1)=N/Nc1ccccc1` it was “inactive”.
In the case of `COc1cc2nc(NCCCCCNC(=O)c3ccco3)nc(N)c2cc1OC`, the EC50 is over 575 µM and the 50% inhibitory concentration (IC50) stood at 35.5 µM.
For `CC(=O)/C(C=Nc1c(C)n(C)n(-c2ccccc2)c1=O)=C(/C)O`, the EC50 is over 200 µM and the half-maximal inhibitory concentration (IC50) was over 200 µM.
Take `COC(=O)C1=C(C(=O)OC)C(OO)(c2ccccc2)OC1=O` (stereo not drawn): the EC50 was over 200 µM and the IC50 is over 200 µM.
In the case of `[N-]=[N+]=NC12CC3CC4C5CC(CC41)CC2[C@H]5C3`, the EC50 is over 81.3 µM and the 50% inhibitory concentration (IC50) is over 81.3 µM.
As for `CC1=C(C(=O)Nc2ccccc2)C(c2ccc(C(C)C)cc2)C(C(=O)Nc2ccccc2)=C(C)N1`, the result was inactive.
Consider `COc1ccc(NC(C)=O)cc1N1C(=O)/C(=C\c2cccc(Oc3ccccc3)c2)S(=O)(=O)C1c1ccccc1` (stereo not drawn), for which the EC50 was over 200 µM and the IC50 was 33.1 µM.
Taken in the same sequence, the figures for `Cn1c(=O)c2c(nc3sc4c(n32)C(=O)c2c(O)ccc(O)c2C4=O)n(C)c1=O` were 0.2 µM and 0.257 µM.
On the same counts, the results for `Cc1nnc2sc(NN)nn12` are over 200 µM and 107 µM.
As for `CN(C)Cc1cc(C(=O)/C=C/c2c(Cl)cccc2Cl)cc(CN(C)C)c1O`, the EC50 was over 200 µM and the IC50 amounted to 2.69 µM.
On the same counts, the results for `CN(CCCNc1ccc2ncn3c4ccccc4c(=O)c1c23)CCCN1C(=O)c2cccc3cc([N+](=O)[O-])cc(c23)C1=O` are 0.01 µM and 0.0316 µM.
Taken in the same sequence, the figures for `N#C/C(=C/NC(=S)N=Nc1c(O)[nH]c2ccccc12)C(N)=O` were over 200 µM and 195 µM.
Take `COc1cccc(/C=N/[N-]C(N)=O)c1[O-].[Cu+2].[OH3+]`: the EC50 is over 64.6 µM and the concentration for half-maximal inhibition (IC50) stood at 10.5 µM.
As for `O=c1c2cc([N+](=O)[O-])cnc2sn1-c1ccc(Oc2ccccc2)cc1`, the half-maximal effective concentration (EC50) is 37.2 µM and the IC50 was 43.7 µM.
Taken in the same sequence, the figures for `CC1(C)Oc2cc3oc(C(=O)O)cc(=O)c3cc2-c2ccc(O)cc21` were over 490 µM and 347 µM.
Taken in the same sequence, the figures for `N#CC(C#N)=C1CCN2CCCc3cccc1c32` were over 200 µM and 129 µM.
As to `O/N=C(\CC(O)(C(F)(F)F)C(F)(F)F)c1cccs1`, the EC50 was over 200 µM and the 50% inhibitory concentration (IC50) was over 100 µM.
Taken in the same sequence, the figures for `S=C(NC/C(Br)=C/Br)Nc1cccc2ccccc12` were over 200 µM and 36.3 µM.
On the same counts, the results for `O=C(N/N=C/c1ccc(Br)cc1)N/N=C/c1ccc(Br)cc1` are over 200 µM and 31.6 µM.
On the same counts, the results for `CC(C)=CC(=O)CC(=O)C(=O)NCCNC(=O)C(=O)CC(=O)C=C(C)C` are over 2.09 µM and over 2.09 µM.
`C(#C[C@@]12CCC[C@@H]1NCO2)c1ccc2c(c1)OCO2`: the EC50 is over 200 µM and the IC50 is 50.1 µM.
With `N#CC1(C#N)C2C=CC(C3CCC=C32)C1(C#N)C#N` (stereo not drawn), the EC50 is over 200 µM and the IC50 was 7.76 µM.
Taken in the same sequence, the figures for `COc1ccc(N2C(=O)C3c4[nH]c5cc(Cl)ccc5c4C4CCC(C(C)(C)C)CC4C3C2=O)cc1` (stereo not drawn) were over 200 µM and 91.2 µM.
On to `COC(=O)C1([Se]c2ccccc2)CCN2CCC(OCc3ccccc3[N+](=O)[O-])C21` (stereo not drawn), for which the EC50 was over 200 µM and the IC50 is over 200 µM.
As for `Cn1ncc(=O)[nH]c1=S`, the EC50 was over 200 µM and the IC50 is over 200 µM.
As for `CCCCCCCCCC(=O)CC(=O)c1c(O)cc(O)cc1O`, the EC50 was over 200 µM and the half-inhibitory concentration (IC50) stood at 26.3 µM.
As to `c1ccc(C2OC3(CCC[C@H]4C[C@H]43)O[C@H]2c2ccccc2)cc1` (stereo partly drawn), the outcome was inactive.
In the case of `CC(C)(C)OC(=O)CC(NC(=O)OC(C)(C)C)C(=O)Oc1ccc([N+](=O)[O-])cc1` (stereo not drawn), the EC50 is over 200 µM and the IC50 was over 200 µM.
`CC(Cl)CN1c2ccccc2Sc2ccc(Cl)cc21` (stereo not drawn): the EC50 was over 200 µM and the IC50 came out at 132 µM.
For the molecule `COc1cc2c(c3c1c(=O)c1ccccc1n3C)C=CC1(CCCC1)O2`, the EC50 was over 200 µM and the half-maximal inhibitory concentration (IC50) stood at 11 µM.
Taken in the same sequence, the figures for `C(=Nc1cnc2ccccc2c1)c1cccnc1` were over 1070 µM and 195 µM.
Taken in the same sequence, the figures for `O=c1c2ccccc2c(=O)c2c1cc(Cl)c1[nH]c3c([nH]c12)c(Cl)cc1c(=O)c2ccccc2c(=O)c13` were over 7.41 µM and over 7.41 µM.
Taken in the same sequence, the figures for `CC(=O)OC(C)C1C2=C(C(=O)CC1(C)O)C(=O)c1c(ccc(-c3ccc4c(c3O)C(=O)C3=C(C4=O)C(C(C)OC(C)=O)C(C)(O)CC3=O)c1O)C2=O` (stereo not drawn) were over 66.1 µM and 0.263 µM.
In the case of `COC(=O)c1c2c(cc3c1CC1(Cc4cc5c(cc4C1)CCC5)C3)CCC2`, the EC50 is over 200 µM and the IC50 is over 200 µM.
Turning to `CC12C(C(=O)O)C1(c1ccccc1)C2C(=O)O` (stereo not drawn), the EC50 is over 1070 µM and the IC50 was over 1070 µM.
In the case of `CNC(=S)N(C)C(=S)Nn1c(=O)c(C)nn(C)c1=S`, the EC50 is 18.6 µM and the IC50 is over 200 µM.
For `COC(=O)c1cccc(OC)c1C#Cc1c(OC)cccc1OC`, the EC50 was over 200 µM and the half-maximal inhibitory concentration (IC50) turned out to be 21.9 µM.
`Nc1c(C(=O)Nc2ccc(C3=NCCN3)cc2)cccc1C(=O)Nc1ccc(C2=NCCN2)cc1`: the EC50 is over 110 µM and the IC50 was found to be 67.6 µM.
With `CN1CCN(Cc2nc3c(s2)CCc2sccc2-3)CC1`, the EC50 is over 200 µM and the half-maximal inhibitory concentration (IC50) is 57.5 µM.
With `CC(=O)[O-].CC(=O)[O-].O=C(N/N=C/c1cc(Cl)cc(Cl)c1O)c1ccncc1.[Ni+2]`, the outcome was inactive.
For `COc1ccc2[nH]c(S(=O)(=O)N3CC(CCl)c4ccc(N)cc43)cc2c1` (stereo not drawn), the EC50 was over 0.2 µM and the 50% inhibitory concentration (IC50) worked out at 0.102 µM.
On the same counts, the results for `O=c1[nH]c2ccccc2nc1/C=C\NC(=S)Nc1cc(Cl)ccc1Cl` are over 200 µM and 112 µM.
Taken in the same sequence, the figures for `N#C/C(=C\c1ccc(O)c(O)c1)C(=O)NCc1cccc(CNC(=O)/C(C#N)=C/c2ccc(O)c(O)c2)c1` were over 200 µM and 10.2 µM.
As for `CNCCSSCCN`, the EC50 was over 200 µM and the IC50 is over 200 µM.
`O=[N+]([O-])c1c(F)c(F)c2c(c1F)Nc1ccccc1S2`: the EC50 was over 200 µM and the 50% inhibitory concentration (IC50) worked out at 3.02 µM.
As for `CC1C[N+]2(CNC(=O)C3=C(O)C4(O)C(=O)C5=C(O)c6c(O)cccc6C(C)(O)C5CC4C(N(C)C)C3=O)CC(C)O[B-]2(c2ccccc2)O1` (stereo not drawn), the EC50 is over 138 µM and the half-maximal inhibitory concentration (IC50) turned out to be 105 µM.
For `O=S(=O)(Nc1cccc(F)c1)c1ccc(F)cc1`, the outcome was inactive.
On the same count and under the same terms, in the case of `CCSc1nc(=[N+]2CCCC2)ss1` it was “inactive”.
In the case of `O=c1sc2ccccc2n1CC1CS1` (stereo not drawn), the EC50 is over 302 µM and the IC50 came out at 11 µM.
Taken in the same sequence, the figures for `Cc1ccc(NC(=O)/C(=N/N(C)C)C(C2OC(=O)c3ccccc32)[N+](=O)[O-])cc1` (stereo not drawn) were over 47.9 µM and over 47.9 µM.
For `CN(C(=O)C12C3C4C1C1C2C3C41C(=O)O)C(C)(C)C` (stereo not drawn), the result was inactive.
Same read-out and setting: the result for `CCC(C)N(CCN)C(=O)c1cc2ccccc2c(-c2ccccc2Cl)n1` (stereo not drawn) reads “inactive”.
Take `O=[N+]([O-])/C=C/c1cn(CCCCCCCCCCCCn2cc(/C=C/[N+](=O)[O-])c3ccccc32)c2ccccc12`: the EC50 is over 100 µM and the half-maximal inhibitory concentration (IC50) was over 100 µM.
For the molecule `C/C=C1\CN2CCc3c([nH]c4ccccc34)C2CC1CC(=O)N(C)C` (stereo not drawn), the EC50 was over 200 µM and the IC50 was over 200 µM.
Regarding `C[N+]1([O-])C2CCC1CC(OC(=O)C(CO)c1ccccc1)C2` (stereo not drawn), the EC50 is over 200 µM and the half-inhibitory concentration (IC50) was over 200 µM.
As for `CCCCCCCCOP(=O)(O)OP(=O)(O)OCC1OC(n2ccc(N)nc2=O)C(O)C1O` (stereo not drawn), the EC50 was over 200 µM and the IC50 is over 200 µM.
